Assay [1] can be described thus: M. tuberculosis H37Rv growth inhibitors, H37Rv strain (AID 1626). The assay is classed as functional.
Assay [2] addresses T1, Mannose-6-phosphate isomerase (Homo sapiens, UniProt P34949).
T1 sequence (P34949 whole entry): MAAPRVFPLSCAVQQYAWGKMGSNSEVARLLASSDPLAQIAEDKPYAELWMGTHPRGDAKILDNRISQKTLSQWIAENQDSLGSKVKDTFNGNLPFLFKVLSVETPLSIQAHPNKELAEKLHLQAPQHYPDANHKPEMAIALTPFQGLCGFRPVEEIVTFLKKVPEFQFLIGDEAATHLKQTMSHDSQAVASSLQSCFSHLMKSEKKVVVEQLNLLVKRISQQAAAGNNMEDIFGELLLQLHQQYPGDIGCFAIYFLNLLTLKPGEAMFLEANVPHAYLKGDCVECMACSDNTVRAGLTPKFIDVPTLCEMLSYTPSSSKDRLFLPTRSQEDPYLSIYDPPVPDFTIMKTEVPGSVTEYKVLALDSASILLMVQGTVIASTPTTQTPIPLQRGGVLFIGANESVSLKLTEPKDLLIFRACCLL
In words: inhibitors of human PMI, primary screen, biochemical, fluorescence intensity, coupled assay (AID 1209).

Assay [3] addresses T1, Mannose-6-phosphate isomerase. Description: human PMI inhibitors, high substrate, primary screen, biochemical, fluorescence intensity, high mannose 6-phosphate (AID 1220).
Assay [4] has as its target FAD-linked sulfhydryl oxidase ALR (Homo sapiens, UniProt P55789). In words: inhibitors of human ALR sulfhydryl oxidase, dose response, biochemical, H2O2 detection, luminescence, cherry-pick (AID 493248).
The next assay deals with NADPH oxidase 1 (Homo sapiens, UniProt Q9Y5S8). The class given is functional, cell-based.
Assay [5] addresses T2, Neuropeptide Y receptor type 1 (Homo sapiens, UniProt P25929). The assay is classed as functional.
Assay [6] deals with T3, Neuropeptide Y receptor type 2 (Homo sapiens, UniProt P49146). The class given is functional, cell-based.
Assay [7] has as its system BJ. Description: cytotoxicity toward BJ-TERT fibroblasts, dose response, cell-based, RAS-independent, luminescence (AID 1933). The assay is classed as functional. Conditions: Homo sapiens.
In assay [8] the test system is BJ. In words: cells. The settings on record: Homo sapiens. The assay is classed as functional, cell-based.
The nature of assay [9]: growth suppression of PTEN-null colon cells, dose response, cell-based, HCT116 PTEN knockout (AID 1047).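 Note: HCT116 colon tumor cells with PTEN knocked out; cells exposed to compound for 60 hours before readout; potency for loss of cell viability measured by luminescence.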 The assay is classed as functional.
Assay [10] in a line: Luminescence Cell-Based Dose Confirmation HTS to Identify Inhibitors of Polyadenylation. The assay is classed as functional.
A short description of assay [11]: growth suppression of beta-catenin-knockout colon cells, dose response, cell-based, HCT116, human colon tumor (AID 1045).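 Note: HCT116 colon tumor cells with beta catenin knocked out; cells exposed to compound for 60 hours.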 The class given is functional.
The subject of assay [12] is BJ. Description: cytotoxicity toward BJ-TERT-LT-ST fibroblasts, dose response, cell-based, RAS-independent, luminescence (AID 1935).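 Note: BJ fibroblasts immortalized with TERT plus LT and ST oncogenes.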 The class given is functional. Conditions: Homo sapiens.
Assay [13] in a line: cytotoxicity toward DRD oncogenic fibroblasts, dose response, cell-based, non-viral oncogenic, luminescence (AID 1934). The assay is classed as functional. The settings on record: Homo sapiens.
Another assay concerns INS1. Description: beta cell apoptosis inhibitors, cytokine rescue, dose response, luminescence, retest (AID 449756).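 Note: cell death triggered by IL-1 beta plus TNF-alpha plus IFN-gamma mixture; protective hits raise ATP signal compared with cytokine alone wells.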 The assay is classed as functional, cell-based. The settings on record: Rattus norvegicus.
The subject of a further assay is HeLa. Description: Cytotoxicity counterscreen assay for transcriptional activators of heat shock protein 70 (Hsp70). [Related pubchem assays: 1203, 1252 ]. The assay is classed as functional. Conditions: Homo sapiens. (In general: The purpose of a counterscreen is to sort out artefacts and off-target activity.)
A short description of assay [14]: Vero E6 cell cytotoxicity, dose response, cytotoxicity control for non-replicating M. tuberculosis project, secondary assay (AID 492998). The class given is functional, VeroE6. Conditions: Vero C1008.
The next assay in a line: cells. The assay is classed as functional.
The target of assay [15] is T3, Neuropeptide Y receptor type 2. Description: NPY-Y2 antagonist potency, selectivity check, dose response, counter-screen for NPY-Y1 antagonist project, cell-based (AID 1278). The class given is functional.
For assay [16], the target named is T2, Neuropeptide Y receptor type 1. Description: NPY-Y1 receptor antagonist potency, dose response, cell-based (AID 1277). The class given is functional.
The target of assay [17] is Epstein-Barr nuclear antigen 1 (Epstein-Barr virus (strain B95-8) (HHV-4) (Human herpesvirus 4), UniProt P03211). In words: EBNA-1 inhibitors, dose response, biochemical, fluorescence polarization, 1536-well (AID 2381).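 Note: fluorescence polarization of a Cy5 DNA probe bound by EBNA-1 protein.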 Further details: species or system human gammaherpesvirus 4.
In assay [18] the target is Lytic switch protein BZLF1 (Epstein-Barr virus (strain B95-8) (HHV-4) (Human herpesvirus 4), UniProt P03206). In words: EBV ZTA inhibitors, dose response, counter-screen for EBNA-1 inhibitor project, biochemical, fluorescence polarization, Epstein-Barr virus, 1536-well (AID 2377).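 Note: fluorescence polarization of Cy5-labelled ZRE DNA probe bound by purified Zta.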 Further details: species or system human gammaherpesvirus 4.
For another assay, the target named is T4, Estrogen receptor (Homo sapiens, UniProt P03372).
T4 sequence (P03372 whole entry): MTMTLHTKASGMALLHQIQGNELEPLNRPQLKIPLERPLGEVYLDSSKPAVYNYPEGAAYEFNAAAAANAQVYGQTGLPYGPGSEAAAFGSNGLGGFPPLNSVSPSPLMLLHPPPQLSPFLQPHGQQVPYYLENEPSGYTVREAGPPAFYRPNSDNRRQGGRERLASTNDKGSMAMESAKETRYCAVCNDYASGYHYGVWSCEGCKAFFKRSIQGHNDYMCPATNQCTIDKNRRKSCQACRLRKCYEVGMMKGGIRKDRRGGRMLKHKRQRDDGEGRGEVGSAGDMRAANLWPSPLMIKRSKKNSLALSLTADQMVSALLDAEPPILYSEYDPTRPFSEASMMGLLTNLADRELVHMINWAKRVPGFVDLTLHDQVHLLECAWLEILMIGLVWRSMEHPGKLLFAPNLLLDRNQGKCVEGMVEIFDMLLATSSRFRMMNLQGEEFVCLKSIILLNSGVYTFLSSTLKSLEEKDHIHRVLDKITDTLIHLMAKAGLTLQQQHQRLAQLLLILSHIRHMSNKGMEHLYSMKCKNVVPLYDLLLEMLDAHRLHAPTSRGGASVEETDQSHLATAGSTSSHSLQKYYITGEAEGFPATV
In words: potentiators of ERα–SRC-1 coactivator binding, dose response, biochemical, TR-FRET, ERα LBD (AID 737).

A short description of assay [19]: enhancers of respiration in Yfh1-depleted yeast, dose response, Friedreich's ataxia, plus single-dose screen (AID 1465).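 Note: yeast depleted of Yfh1p frataxin homolog grown on glycerol needing respiration; WST-1 tetrazolium dye reduction as measure of cellular dehydrogenase metabolic activity.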 The assay is classed as functional.

Molecules are shown by their SMILES. Calls of active or inactive are those of the source.

T3 sequence (P49146 whole entry): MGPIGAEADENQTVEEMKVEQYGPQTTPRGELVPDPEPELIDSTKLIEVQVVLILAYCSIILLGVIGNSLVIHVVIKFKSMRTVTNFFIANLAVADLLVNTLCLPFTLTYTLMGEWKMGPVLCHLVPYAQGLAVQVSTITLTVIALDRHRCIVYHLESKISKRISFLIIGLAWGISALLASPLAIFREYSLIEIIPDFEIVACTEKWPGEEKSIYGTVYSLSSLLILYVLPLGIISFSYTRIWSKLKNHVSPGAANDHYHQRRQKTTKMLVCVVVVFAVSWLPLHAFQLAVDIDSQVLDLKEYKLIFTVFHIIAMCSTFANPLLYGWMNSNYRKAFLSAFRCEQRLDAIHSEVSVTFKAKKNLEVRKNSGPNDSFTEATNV
T2 sequence (P25929 whole entry): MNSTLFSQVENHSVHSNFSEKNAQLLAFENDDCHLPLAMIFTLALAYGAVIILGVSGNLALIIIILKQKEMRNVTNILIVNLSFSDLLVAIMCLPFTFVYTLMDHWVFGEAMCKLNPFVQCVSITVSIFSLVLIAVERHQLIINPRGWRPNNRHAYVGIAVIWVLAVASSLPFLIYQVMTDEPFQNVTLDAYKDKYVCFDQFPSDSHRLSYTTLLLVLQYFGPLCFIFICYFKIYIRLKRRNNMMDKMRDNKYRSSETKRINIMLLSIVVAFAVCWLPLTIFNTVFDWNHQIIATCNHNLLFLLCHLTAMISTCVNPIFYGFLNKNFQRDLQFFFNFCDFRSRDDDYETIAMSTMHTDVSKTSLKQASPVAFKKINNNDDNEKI
Chain of FAD-linked sulfhydryl oxidase ALR (P55789 whole entry): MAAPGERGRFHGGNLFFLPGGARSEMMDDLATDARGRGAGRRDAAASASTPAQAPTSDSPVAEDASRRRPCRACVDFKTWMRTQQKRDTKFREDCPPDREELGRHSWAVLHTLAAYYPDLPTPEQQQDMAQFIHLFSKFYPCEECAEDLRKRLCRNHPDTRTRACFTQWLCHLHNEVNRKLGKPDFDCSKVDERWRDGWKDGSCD
Chain of NADPH oxidase 1 (Q9Y5S8 whole entry): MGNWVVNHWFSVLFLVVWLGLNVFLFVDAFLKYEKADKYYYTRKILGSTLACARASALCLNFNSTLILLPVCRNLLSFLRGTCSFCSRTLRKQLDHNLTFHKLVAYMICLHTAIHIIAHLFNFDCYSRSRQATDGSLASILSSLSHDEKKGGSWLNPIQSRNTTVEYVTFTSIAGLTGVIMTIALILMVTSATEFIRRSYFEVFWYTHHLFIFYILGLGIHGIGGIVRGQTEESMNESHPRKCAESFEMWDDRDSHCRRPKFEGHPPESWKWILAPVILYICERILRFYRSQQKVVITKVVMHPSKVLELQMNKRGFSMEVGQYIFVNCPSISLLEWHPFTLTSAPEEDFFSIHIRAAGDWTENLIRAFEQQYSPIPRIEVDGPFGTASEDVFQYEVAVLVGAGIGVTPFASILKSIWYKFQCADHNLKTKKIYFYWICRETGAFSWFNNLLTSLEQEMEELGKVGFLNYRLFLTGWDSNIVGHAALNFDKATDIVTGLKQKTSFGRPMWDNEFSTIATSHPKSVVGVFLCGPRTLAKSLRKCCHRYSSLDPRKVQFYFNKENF
Chain of Epstein-Barr nuclear antigen 1 (P03211 whole entry): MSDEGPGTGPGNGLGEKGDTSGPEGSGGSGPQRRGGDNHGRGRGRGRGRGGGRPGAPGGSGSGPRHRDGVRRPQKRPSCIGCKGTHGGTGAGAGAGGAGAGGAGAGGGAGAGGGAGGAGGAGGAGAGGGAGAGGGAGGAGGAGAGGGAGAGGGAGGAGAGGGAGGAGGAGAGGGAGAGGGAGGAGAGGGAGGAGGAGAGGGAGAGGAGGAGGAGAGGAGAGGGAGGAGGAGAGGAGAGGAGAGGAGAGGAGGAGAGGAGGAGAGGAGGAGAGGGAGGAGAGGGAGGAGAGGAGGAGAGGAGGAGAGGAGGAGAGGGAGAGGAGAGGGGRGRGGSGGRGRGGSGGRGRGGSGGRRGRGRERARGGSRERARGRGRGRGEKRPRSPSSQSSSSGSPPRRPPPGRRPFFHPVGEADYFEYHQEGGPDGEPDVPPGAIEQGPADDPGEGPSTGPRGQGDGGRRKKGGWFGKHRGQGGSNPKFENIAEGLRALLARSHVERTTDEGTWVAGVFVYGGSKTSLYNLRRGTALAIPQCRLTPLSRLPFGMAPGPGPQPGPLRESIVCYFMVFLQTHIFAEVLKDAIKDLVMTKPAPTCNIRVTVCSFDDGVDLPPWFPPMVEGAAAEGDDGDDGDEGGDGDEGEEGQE
Chain of Lytic switch protein BZLF1 (P03206 whole entry): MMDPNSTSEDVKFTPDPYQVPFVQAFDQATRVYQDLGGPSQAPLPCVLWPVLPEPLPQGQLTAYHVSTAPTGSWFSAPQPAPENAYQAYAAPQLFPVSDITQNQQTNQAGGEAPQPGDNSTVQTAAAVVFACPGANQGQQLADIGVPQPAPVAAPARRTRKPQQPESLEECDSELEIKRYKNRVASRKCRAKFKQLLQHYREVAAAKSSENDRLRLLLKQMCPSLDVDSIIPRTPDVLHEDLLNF

As a reminder, the IC50 is the concentration at which inhibition is half-maximal. For `C=CCn1c(COc2ccc3c(c2)CCCC3)nnc1SCC(=O)Nc1cccc(SC)c1`, in assay [1], the IC50 was > 100 µM (active).
In general, AC50 refers to the concentration at which the activity in the assay is half-maximal. For `Cn1cnnc1SCc1ccc(C(=O)N/N=C(\CCC(=O)O)c2ccc(C(C)(C)C)cc2)cc1`, the IC50 in assay [2] and in [3] was > 50 µM (not active) throughout. The AC50 in [4] was 0.755 µM (active).
As for `COc1cc(-c2nc(-c3ccccc3)c(-c3ccccc3)[nH]2)cc(OC)c1O`, at NADPH oxidase 1, the IC50 was 0.517 µM (active).
In the case of `Cc1ccc(C)c(NS(=O)(=O)c2cc(C(=O)Nc3ccccc3-c3ccccc3)ccc2C)c1`, the IC50 in assay [5] was > 35 µM (not active); in assay [6], 0.298 µM (active).
Broadly, the EC50 is the concentration that produces a half-maximal response. As for `N#C/C(=C\c1ccc([N+](=O)[O-])o1)c1nc2ccccc2[nH]1`, the EC50 is 2.27 µM (inconclusive) in the assay with BJ [7]; > 150 µM (inconclusive) with BJ [8]; 0.985 µM (active) in assay [9]; 3.64 µM (active) in assay [10]; 1.01 µM (active) in assay [11]; > 150 µM (inconclusive) in the assay with BJ [12]. The EC50 in [13] is 5.9 µM (inconclusive). Further, the AC50 in the assay on INS1 was 3.02 µM (active).
For orientation: CC50 means the concentration at which the toxic effect on the cells reaches its halfway point. As for `O=[N+]([O-])c1ccccc1C1Nc2cccc3cccc(c23)N1`, the CC50 was > 99 µM (not active) with HeLa and 14.6 µM (active) in assay [14]. Moreover, the IC50 in “cells” was 27.2 µM (active).
On to `Cc1ccc(COC(=O)c2nn(-c3ccccc3)nc2N)cc1`, for which the IC50 in assay [15] was 10.6 µM (not active); in [16], 12 µM (not active).
Regarding `Cc1cc(C(=O)OCC(=O)c2c(N)n(C)c(=O)n(C)c2=O)c(C)n1-c1ccccc1`, the IC50 in assay [17] is listed as 13.1 µM (not active); in assay [18] it was > 111 µM (not active).
Turning to `CCOc1ccccc1-c1nc(-c2ccc(NC(=O)c3ccc(Br)o3)cc2)no1`, on Estrogen receptor, the EC50 is 12.7 µM (active).
As to `CC(C)NC(=O)/C(C#N)=C\c1ccc(N(C)C)o1`, the EC50 in assay [19] is > 100 µM (active).

The record behind these values is ChEMBL document CHEMBL1201862, “PubChem BioAssay data set” (2004).
